For one data set, the target named is albumin (Homo sapiens, UniProt P02768). The conditions noted are these: background statement; cited from earlier work.
For data set [1] the following is noted: background, reference 2; cited from earlier work.
Another data set concerns the target HSA (Homo sapiens, UniProt P02768). The data set is described as follows: Fluorescence polarisation with increasing amounts of HSA. The data set is classed as binding. The conditions noted are these: 100 nM compound, PBS, 1 h at 25° C., read-out: dissociation constant. On the procedure:
100 nM of 428-D-Lys-FAM, 622-D-Lys-FAM and, for comparison, of fluorescein and of phenethylamine-FAM were incubated with increasing amounts of HSA in PBS for 1 h at 25° C. The fluorescence polarization was determined by excitation at 485 nm and measurement at 535 nm.

Data set [2] is described as follows: Pharmacokinetic profiles of fluorescein and FAM derivatives in mouse (LC/MS/MS of plasma). It is filed as in vivo, 129SvPas mice. The conditions noted are these: for half-life: 129SvPas, mouse, in vivo, iv, 20 nmol. The procedure:
In a further in vivo experiment, the pharmacokinetic properties of fluorescein, phenethylamine-FAM, 428-D-Lys-FAM, and 622-D-Lys-FAM were measured and compared. Clearance profiles for the four compounds differed distinctly (FIG. 14).
Pharmacokinetic analyses were performed under the Project Licenses 198/2005 of the Veterinaramt des Kantons Zürich (issued to Dario Neri). 129SvPas mice were injected into the tail vein with 20 nmol of fluorescein, Phenethylamine-FAM, 428-D-Lys-FAM, or 622-D-Lys-FAM dissolved in 100 μl of 100 mM Tris/HCl, 105 mM NaCl, pH 8.2 (2 mice each). 20-30 μl blood samples were taken from the vena saphena with EDTA coated capillaries (Sarstedt) 1, 5, 15, 30, 60, 120, 240, 360, 480 and 1440 minutes after injection and centrifuged. 5-10 μl of plasma were mixed with 40 μl of 0.1% trifluoroacetic acid and 200 μl of ethanol and incubated on ice for 1 hour. After one hour the samples were centrifuged to remove the precipitated proteins. The supernatant was dried under vacuum and subsequently redissolved in 50 μl of DMSO/H2O. 40 μl were injected into an LC/MS/MS system (Micromass Quattro micro API) and run on a linear gradient from in 0.1% HCOOH from 5% to 95% acetonitrile in ten minutes on a Waters XTerra MS C18 column ([…], 1×50 mm) while observing the daughter ions with m/z of 287.1 and 202.1 of the parent ion 333.1 for fluorescein, with m/z of 287.3 and 332.3 of the parent ion 480.2 for Phenethylamine-FAM, with m/z of 287.3, 377.2 and 505.2 of the parent ion 777.1 for 428-D-Lys-FAM, and with m/z of 287.3 and 505.4 of the parent ion 651.3 for 622-D-Lys-FAM. Comparing the area under the curve with a previously obtained dilution series of fluorescein and 428-D-Lys-FAM in plasma with identical sample preparation allowed the quantification of the molecules.

The nature of data set [3]: MRI analysis of major blood vessels of the brain. The data set is classed as in vivo, C57/B16 mice. The conditions noted are these: mice, 1.2 μmol i.v. On the procedure: All animal experiments were carried out in strict adherence to the Swiss law for animal protection. MR measurements were performed on a Bruker PharmaScan 47/16 MR system (Bruker BioSpin GmbH) operating at 200 MHz using a circular cryogenic surface coil for signal transmission and reception. Mice were anesthetized with 1.4-1.5% isoflurane in air:O2 (4:1). Scout scans were performed to asses the anatomy of the animal. The shortening effect of both contrast agents DTPA-Gd and 428-D-Lys-β-Ala-DTPA-Gd on the longitudinal blood relaxation time (T1) was investigated in two C57/B16 mice. For this purpose, transverse cine 2D images were acquired using the following sequence parameters: field of view (FOV): 19×19×0.5 mm3, matrix size: 128×128, flip angle: 15°, TE/TR: 3.0/14 ms, averages: 6, repetitions: 50, temporal resolution: 10.75 s, total scan time: 8 min 57 s. The inflowing blood was saturated by exciting a 4 mm thick slice (flip angle15°) cranial to the imaging plane. Contrast agents were injected into the tail vein after a baseline of twenty repetitions. Firstly, a dose of 1.2 μmol of DTPA-Gd and secondly, after a wait time of 30 min, a dose of 1.2 μmol of 428-D-Lys-β-Ala-DTPA-Gd was administered. The time course of the MR signal was analyzed in a large vessel and normalized to the baseline value for comparison.

Data set [4] in a line: Pharmacokinetic profile of 428-ε-Lys-α-NH-FITC vs. fluorescein in mice (LC/MS/MS of serum). More on the design: species or system 129SV mice. The conditions noted are these: 129SV, mouse, in vivo. On the procedure:
The pharmacokinetic properties of conjugates of the invention are evaluated by injection of both said conjugate and the corresponding unconjugated agent (i.e. the agent that has not been modified by a compound of the invention) into mice and subsequent sampling of the conjugate and agent concentrations. Conjugate and agent concentrations are determined by Liquid Chromatography/Mass Spectrometry/Mass Spectrometry (LC-MS/MS) according to techniques known in the art.
100 μl of a 170 μM solution of fluorescein and of 428-ε-Lys-α-NH-FITC were injected into 2 pairs of immunocompetent 129SV mice.

Data set [5] is described as follows: Fluorescein angiographic analysis of the retina (scanning-laser ophthalmoscopy). The conditions noted are these: mice, 50 nmol i.v. The data set is classed as in vivo, C57BL/6 mice. The procedure:
To obtain functional information on the imaging properties of 428-D-Lys-FAM, a fluorescein angiographic analysis of the retina was performed. Fluorescein and 428-D-Lys-FAM were injected i.v. into mice and pictures of the eye fundus taken at different time-points. The fluorescein angiographic pictures confirmed the results of the pharmacokinetic studies.
Scanning-laser opthalmoscopy imaging was performed with a Heidelberg Retina Angiograph (HRA I, Heidelberg Engineering, Germany), a confocal scanning-laser opthalmoscope, according to previously described procedures [see reference 39]. Briefly, wild-type C57BL/6 mice were anaesthetized with ketamine (66.7 mg/kg) and xylazine (11.7 mg./kg), and their pupils were dilated with tropicamide eye drops (Mydriaticum Stulln, Pharma Stulln, Germany). The HRA features two argon wavelengths (488 nm and 514 nm) in the short wavelength range and two infrared diode lasers (795 nm and 830 nm) in the long wavelength range. The laser wavelength of 488 nm was used for fluorescein angiography, with a barrier filter at 500 nm. Four mice each received either 50 nmol of fluorescein or 428-D-Lys-FAM dissolved in 100 μl of 100 mM Tris/HCl, 105 mM NaCl, pH 8.2 injected i.v. into the tail. […] In particular, the brightness value in this study was fixed so that the brightest image (428-D-Lys-FAM at 1 minute following injection) could be recorded without overexposure. […]

The conditions of data set [6]: high doses, bolus injection; depending on the patient group; cited from earlier work.

HSA, sequence (P02768 25-609): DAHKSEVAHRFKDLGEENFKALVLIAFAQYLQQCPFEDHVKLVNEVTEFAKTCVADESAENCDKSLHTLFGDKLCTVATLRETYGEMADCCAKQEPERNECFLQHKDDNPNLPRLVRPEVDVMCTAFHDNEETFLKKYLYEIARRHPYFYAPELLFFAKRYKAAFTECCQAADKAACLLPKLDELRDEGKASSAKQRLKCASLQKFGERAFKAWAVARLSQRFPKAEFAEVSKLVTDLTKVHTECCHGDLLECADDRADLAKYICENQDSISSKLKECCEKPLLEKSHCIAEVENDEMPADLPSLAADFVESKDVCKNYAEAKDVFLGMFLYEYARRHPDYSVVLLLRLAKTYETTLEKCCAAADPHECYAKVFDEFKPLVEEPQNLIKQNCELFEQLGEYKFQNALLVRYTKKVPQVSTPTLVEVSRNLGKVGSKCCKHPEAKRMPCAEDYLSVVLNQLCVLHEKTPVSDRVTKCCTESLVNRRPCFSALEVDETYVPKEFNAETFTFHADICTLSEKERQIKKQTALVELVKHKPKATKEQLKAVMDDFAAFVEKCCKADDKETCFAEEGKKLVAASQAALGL
albumin, sequence (P02768 25-609, species assumed): as the sequence (P02768 25-609) above

As to `C=CC1=C(C)/C(=C/c2[nH]c(Cc3[nH]c(/C=C4\NC(=O)C(C)=C4C=C)c(C)c3CCC(=O)O)c(CCC(=O)O)c2C)NC1=O` [bilirubin], the “affinity / dissociation constant to albumin (in words)” value on albumin is “nanomolar affinity”.

`COc1cccc2c1C(=O)c1c(O)c3c(c(O)c1C2=O)C[C@@](O)(/C(CO)=N/NC(=O)CCCCCN1C(=O)C=CC1=O)C[C@@H]3O[C@H]1C[C@H](N)[C@H](O)[C@H](C)O1` [DOXO-EMCH]: in data set [1], the “maximum tolerated dose relative to unmodified doxorubicin” value is 2-10 times.

A word on the half-life: it is the time in which the quantity being followed falls by half. Read a low half-life as fast loss. As for `O=C(NCCc1ccccc1)c1ccc2c(c1)C(=O)OC21c2ccc(O)cc2Oc2cc(O)ccc21` [phenethylamine-FAM], on HSA, the Kd turned out to be 17 µM. Moreover, the half-life was 5 min in data set [2] (t1/2, α) and 53 min in data set [2] (t1/2, β).

For the compound `O=C([O-])CN(CCN(CC(=O)[O-])CC(=O)O)CCN(CC(=O)[O-])CC(=O)O.[Gd+3]` [DTPA-Gd, Gadolinium (III)—diethyltriaminepentaacetic acid], the “extravasation observed by MRI” value in data set [3] is “Rapid extravasation”.

Consider `O=C1OC2(c3ccc(O)cc3Oc3cc(O)ccc32)c2ccccc21` [fluorescein], for which, on HSA, the Kd amounted to 76 µM. The half-life in data set [4] was determined as 12.5 min; in data set [2] (t1/2 (monophasic profile)), 4.6 min. Also, the “time after injection at which no longer detectable” value in data set [2] (mice, 20 nmol into the tail vein, plasma) worked out at 30 min. Further, in data set [5], the “time after which staining of the blood vessels not detectable” value was 20 min. Moreover, in data set [6], the “patients with nausea and vomit” value was “up to 20%”.

The values above are taken from patent US8344177B2, “Albumin binding molecules and uses thereof” (Philochem AG, priority 2006, dated 2013).
